We go through 19 molecules from patent US12454529B2, “Piperazine cyclic ureas” (SIRONAX LTD., priority 2020, dated 2025).

One assay relates to HT-29 cells. Description: HT-29 cell necrosis/necroptosis inhibition (TNF-α + SMAC mimetic + zVAD-FMK; CellTiter-Glo cell viability). It is filed as cell-based. The conditions noted are these: Homo sapiens; HT-29 cells, TNF-α 10 ng/ml + SMAC mimetic 6 μM + zVAD-FMK 10 μM, 20 hours; geometric mean, 10 points in duplicate; read-out: EC50 (Cell activity; Necrosis/Necroptosis Inhibitory Activity, Compounds 1-142). As for the experimental part: Compounds 1-319 (denoted as Compound Nos. 1 through 319 in Table 3 and 4) of the disclosure were tested for binding and cellular RIP1 inhibitory activity following the experimental procedures described below.
• Cell line: HT-29 (ATCC® HTB-38™) • Culture medium: McCOY's 5A, Gibco, Cat No. 16600-082 • FBS, Gibco, Cat No. 10099-141C • Trypsin: Gibco, Cat No. 25200-056 • DMSO: Sigma, Cat No. 67-68-5, 1L • Assay plate: Corning #3903 • Compound dilution plate: Corning #3357 • Inducers: TNFα, GenScript, Cat No. Z01001-50, • SmacM, Cat. No., HY-15989, MedChemExpress (MCE) • Z_VAD FMK, TargetMol, T6013 • Cell Titer-Glo® Luminescent Cell Viability Assay Kit: Promega, Cat No. G7573 • EnVision: PerkinElmer, 2105-0010 Methods Cell Seeding
1. HT-29 cells were checked every day to make sure that they were healthy and growing as expected. They were subjected to sub-culturing when they were approximately 80% confluent.
2. The culture medium, McCOY's 5A medium (Gibco, Cat No. 16600-082) with 10% fetal bovine serum or FBS (Gibco, Cat No. 10099-141C), was pre-warmed in a 37° C. water bath for at least 30 min.
3. When the cells had reached a desired level of confluency of 80% in a T75 flask, the medium was aspirated, and the cells were washed with warm phosphate buffered saline or PBS two times.
4. 2-3 ml fresh warm trypsin (Gibco, Cat No. 25200-056) solution was added to the washed cells. The flask with the cells was transferred to a 37° C. incubator.
5. After 5 minutes, the side of the flask was tapped, and the flask was examined under a microscope for detachment of the cells to the flask. If necessary, the cells were kept in the incubator for an additional 5-10 minutes, with occasional tapping, until lifting was complete.
6. The trypsin reaction was neutralized by transferring 6-9 ml cell culture medium to sterile 15 ml conical tubes, and by centrifuging the cell culture at 300×g for 7 minutes to pellet the cells (supernatant decanted).
7. The cells were resuspended in fresh cell culture medium and the cell counting was performed using a hemocytometer.
8. 100 μl of the resuspended cell culture medium containing ˜5,000 cells were transferred into each well of the sterile 96-well cell culture plate (Corning 3903) and cultured overnight at 37° C. with 5% CO2.
Compound Titration and Treatment
1. All test compounds were dissolved in DMSO (Dimethyl sulfoxide) to create a 20 mM stock.
2. 3 μl of each compound 20 mM stock was mixed with 27 μl DMSO, and the compound solution was further diluted at a titration ratio of 1:3 (20 μl compound solution+40 μl DMSO) till the 10 points end.
3. All culture medium was removed from assay plates filled with HT-29 cell cultures. The cells were then washed with 1 PBS, and resuspended in fresh, FBS-free McCOY's 5A medium containing a cocktail of TNF-α (10 ng/ml), a SMAC mimetic compound (6 μM) and Z-VAD-fluoromethylketone or zVAD-FMK (10 μM) to stimulate the HT-29 cells to increase RIP1 kinase levels and necroptosis.
4. 0.5 μL of the diluted compound solution was added to the corresponding 96-well assay plates.
5. The assay plates were incubated for 20 hours at 37° C. with 5% CO2.
1. The CellTiter-Glo® Luminescent Cell Viability Assay was employed to detect the ATP levels of viable HT-29 cells.
2. The CellTiter-Glo® buffer and the lyophilized substrate were equilibrated to room temperature prior to use.
3. The CellTiter-Glo® substrate was resuspended with CellTiter-Glo® buffer, then mixed by gently vortexing to obtain a homogeneous solution.
4. 20 μl the enzyme/substrate mixture was transferred by multi-channel pipetting into 96-well assay plates.
5. The assay plates were placed on an orbital shaker and the contents were shaken for 3 minutes to induce cell lysis.
6. The assay plates were incubated at room temperature for 10 minutes to stabilize the luminescent signal.
7. The luminescence signals were read and recorded with EnVision.
8. The geometric mean EC50 values were calculated from 10 points response dose with duplicates. In
A general note: Cellular ATP, detected with luciferase, serves as a proxy for viable cell number.
As to `O=C(O)c1c[nH]c(-c2nc(N3CCN(C(=O)N4N=CC[C@H]4c4cc(F)cc(F)c4)CC3)ncc2F)c1` [Compound 21, (S)-5-(2-(4-(5-(3,5-difluorophenyl)-4,5-dihydro-1H-pyrazole-1-carbonyl)piperazin-1-yl)-5-fluoropyrimidin-4-yl)-1H-pyrrole-3-carboxylic acid], the EC50 was in the range of 0.1 to 100 nM.

On to `Cn1cccc(-c2nc(N3CCN(C(=O)N4N=CC[C@H]4c4cc(F)cc(F)c4)CC3)ncc2F)c1=O` [Compound 88, (S)-3-(2-(4-(5-(3,5-difluorophenyl)-4,5-dihydro-1H-pyrazole-1-carbonyl)piperazin-1-yl)-5-fluoropyrimidin-4-yl)-1-methylpyridin-2(1H)-one], for which the EC50 was in the range of 0.1 to 100 nM.

For the molecule `O=C(N1CCN(c2ncc(F)c(-c3cnn(CCO)c3)n2)CC1)N1N=CC[C@H]1c1cc(F)cc(F)c1` [Compound 60, (S)-(5-(3,5-difluorophenyl)-4,5-dihydro-1H-pyrazol-1-yl)(4-(5-fluoro-4-(1-(2-hydroxyethyl)-1H-pyrazol-4-yl)pyrimidin-2-yl)piperazin-1-yl)methanone], the EC50 was in the range of 0.1 to 100 nM.

In the case of `N#Cc1cncc([C@@H]2CC=NN2C(=O)N2CCN(c3nccc(-c4cc[nH]n4)n3)CC2)c1` [Compound 38, (S)-5-(1-(4-(4-(1H-pyrazol-3-yl)pyrimidin-2-yl)piperazine-1-carbonyl)-4,5-dihydro-1H-pyrazol-5-yl)nicotinonitrile], the EC50 is 0.1 to 100 nM.

Still in this assay, the particulars now being: Homo sapiens; HT-29 cells, TNF-α 10 ng/ml + SMAC mimetic 6 μM + zVAD-FMK 10 μM, 20 hours; geometric mean, 10 points in duplicate; read-out: EC50 (Cell activity; Necrosis/Necroptosis Inhibitory Activity, Compounds 143-323).
With `Cn1ncnc1-c1ccc(F)c(N2CCN(C(=O)N3N=CC[C@H]3c3cc(F)cc(C#N)c3)CC2)n1` [Compound 176, (S)-3-fluoro-5-(1-(4-(3-fluoro-6-(1-methyl-1H-1,2,4-triazol-5-yl)pyridin-2-yl)piperazine-1-carbonyl)-4,5-dihydro-1H-pyrazol-5-yl)benzonitrile], the EC50 is 0.1 to 100 nM.

For the molecule `Cc1nc(C)n(-c2nc(N3CCN(C(=O)N4N=CCC4c4ncccc4Cl)CC3)ncc2Cl)n1` (stereo not shown) [Compound 220, (4-(5-chloro-4-(3,5-dimethyl-1H-1,2,4-triazol-1-yl)pyrimidin-2-yl)piperazin-1-yl)(5-(3-chloropyridin-2-yl)-4,5-dihydro-1H-pyrazol-1-yl)methanone], the EC50 lay within 0.1 to 100 nM.

For `Cc1nc(C)n(-c2cc(N3CCN(C(=O)N4N=CC[C@H]4c4cc(F)cc(F)c4)CC3)c(F)cn2)n1` [Compound 271, (S)-(5-(3,5-difluorophenyl)-4,5-dihydro-1H-pyrazol-1-yl)(4-(2-(3,5-dimethyl-1H-1,2,4-triazol-1-yl)-5-fluoropyridin-4-yl)piperazin-1-yl)methanone], the EC50 was in the range of 0.1 to 100 nM.

For the molecule `Cc1nc(C)n(-c2nc(N3CCN(C(=O)N4N=CC[C@@H]4c4cc(F)cc(F)c4F)CC3)ncc2F)n1` [Compound 265, (R)-(4-(4-(3,5-dimethyl-1H-1,2,4-triazol-1-yl)-5-fluoropyrimidin-2-yl)piperazin-1-yl)(5-(2,3,5-trifluorophenyl)-4,5-dihydro-1H-pyrazol-1-yl)methanone], the EC50 was in the range of 100 to 1000 nM.

Take `Cc1nc(C(F)F)nn1-c1nc(N2CCN(C(=O)N3N=CC[C@H]3c3cc(F)cc(C#N)c3)CC2)ncc1F` [Compound 245, (S)-3-(1-(4-(4-(3-(difluoromethyl)-5-methyl-1H-1,2,4-triazol-1-yl)-5-fluoropyrimidinyl)piperazine-1-carbonyl)-4,5-dihydro-1H-pyrazol-5-yl)-5-fluorobenzonitrile]: the EC50 lay within 0.1 to 100 nM.

For the molecule `Cc1nn(-c2cc(N3CCN(C(=O)N4N=CC[C@H]4c4cc(F)cc(F)c4)CC3)ncn2)c(C)c1C#N` [Compound 280, (S)-1-(6-(4-(5-(3,5-difluorophenyl)-4,5-dihydro-1H-pyrazole-1-carbonyl)piperazin-1-yl)pyrimidin-4-yl)-3,5-dimethyl-1H-pyrazole-4-carbonitrile], the EC50 was in the range of 0.1 to 100 nM.

Turning to `Cc1cnn(C)c1-c1ncc(F)c(N2CCN(C(=O)N3N=CCC3c3cscn3)CC2)n1` (stereo not shown) [Compound 160, (4-(2-(1,4-dimethyl-1H-pyrazol-5-yl)-5-fluoropyrimidin-4-yl)piperazin-1-yl)(5-(thiazol-4-yl)-4,5-dihydro-1H-pyrazol-1-yl)methanone], the EC50 was 0.1 to 100 nM.

For the molecule `Cc1cnc(C2CC=NN2C(=O)N2CCN(c3ncc(F)c(-c4cnn(C)n4)n3)CC2)s1` (stereo not shown) [Compound 317, (4-(5-fluoro-4-(2-methyl-2H-1,2,3-triazol-4-yl)pyrimidin-2-yl)piperazin-1-yl)(5-(5-methylthiazol-2-yl)-4,5-dihydro-1H-pyrazol-1-yl)methanone], the EC50 lay within 100 to 1000 nM.

Turning to `O=C(N1CCN(c2ncc(F)c(-n3nccc3C(F)(F)F)n2)CC1)N1N=CC[C@H]1c1cccc(F)c1` [Compound 302, (S)-(4-(5-fluoro-4-(5-(trifluoromethyl)-1H-pyrazol-1-yl)pyrimidin-2-yl)piperazin-1-yl)(5-(3-fluorophenyl)-4,5-dihydro-1H-pyrazol-1-yl)methanone], the EC50 lay in the range of 0.1 to 100 nM.

Regarding `Cc1cnn(C)c1-c1sc(N2CCN(C(=O)N3N=CC[C@H]3c3cc(F)cc(F)c3)CC2)nc1Cl` [Compound 185, (S)-(4-(4-chloro-5-(1,4-dimethyl-1H-pyrazol-5-yl)thiazol-2-yl)piperazin-1-yl)(5-(3,5-difluorophenyl)-4,5-dihydro-1H-pyrazol-1-yl)methanone], the EC50 lay in the range of 0.1 to 100 nM.

In the case of `Cc1nc(C)n(-c2nc(N3CCN(C(=O)N4N=CC[C@@H]4c4cnc(C)s4)CC3)ncc2F)n1` [Compound 239, (R)-(4-(4-(3,5-dimethyl-1H-1,2,4-triazol-1-yl)-5-fluoropyrimidinyl)piperazin-1-yl)(5-(2-methylthiazol-5-yl)-4,5-dihydro-1H-pyrazol-1-yl)methanone], the EC50 fell in the range of 1000 to 10000 nM.

On to `Cc1c(N)nn(C)c1-c1ccnc(N2CCN(C(=O)N3N=CC[C@H]3c3cc(F)cc(F)c3)CC2)n1` [Compound 143, (S)-(4-(4-(3-amino-1,4-dimethyl-1H-pyrazol-5-yl)pyrimidinyl)piperazin-1-yl)(5-(3,5-difluorophenyl)-4,5-dihydro-1H-pyrazol-1-yl)methanone], for which the EC50 was in the range of 0.1 to 100 nM.

For `Cc1nn(-c2nc(N3CCN(C(=O)N4N=CC[C@H]4c4cc(F)cc(C#N)c4)CC3)ncc2F)c(C)c1[N+](=O)[O-]` [Compound 191, (S)-3-(1-(4-(4-(3,5-dimethyl-4-nitro-1H-pyrazol-1-yl)-5-fluoropyrimidin-2-yl)piperazine-1-carbonyl)-4,5-dihydro-1H-pyrazol-5-yl)-5-fluorobenzonitrile], the EC50 was in the range of 0.1 to 100 nM.

In the case of `Cc1nnc(-c2nc(N3CCN(C(=O)N4N=CC[C@H]4c4cncc(F)c4)CC3)ccc2F)s1` [Compound 173, (S)-(4-(5-fluoro-6-(5-methyl-1,3,4-thiadiazol-2-yl)pyridin-2-yl)piperazin-1-yl)(5-(5-fluoropyridin-3-yl)-4,5-dihydro-1H-pyrazol-1-yl)methanone], the EC50 was 0.1 to 100 nM.

For the molecule `Cc1cnn(C)c1-c1ccc(F)c(N2CCN(C(=O)N3N=CCC3c3cncs3)CC2)n1` (stereo not shown) [Compound 296, (4-(6-(1,4-dimethyl-1H-pyrazol-5-yl)-3-fluoropyridin-2-yl)piperazinyl)(5-(thiazol-5-yl)-4,5-dihydro-1H-pyrazol-1-yl)methanone], the EC50 is 0.1 to 100 nM.

The EC50 is the concentration that produces a half-maximal response.
